Here are results for 16 compounds from the NIST ThermoML archive (doi:10.1016/j.jct.2005.01.015).

± gives the expanded uncertainty stated by the source.

A short description of the data set: activity coefficient (dimensionless); of the first substance listed, at infinite dilution; xn = mol fraction of the nth substance listed. The note with it: 101 kPa, Liquid, Chromatography, x1 = 0.

On to `C#CCCCCC` [1-heptyne] + CCCCn1cc[n+](C)c1.COCCOCCOS(=O)(=O)[O-], for which the activity coefficient by setting is: (298.15 K) 7.37 ± 0.34; (303.15 K) 7.22 ± 0.33; (308.15 K) 7.42 ± 0.34.

In the case of `C#CCCCC` [1-hexyne] + CCCCn1cc[n+](C)c1.COCCOCCOS(=O)(=O)[O-], the activity coefficient reads like this: (298.15 K) 4.83 ± 0.22; (303.15 K) 4.74 ± 0.22; (308.15 K) 4.91 ± 0.22.

Regarding `C#CCCCCCC` [1-octyne] + CCCCn1cc[n+](C)c1.COCCOCCOS(=O)(=O)[O-], the activity coefficient is, setting by setting: (298.15 K) 11.7 ± 0.5; (303.15 K) 11.4 ± 0.5; (308.15 K) 11.6 ± 0.5.

Consider `c1ccccc1` [benzene] + CCCCn1cc[n+](C)c1.COCCOCCOS(=O)(=O)[O-], for which the activity coefficient (298.15 K) came to 2.04 ± 0.09, the activity coefficient (303.15 K) was 2.02 ± 0.09 and the activity coefficient (308.15 K) is 2.03 ± 0.09.

`C1CCCCCC1` [cycloheptane] + CCCCn1cc[n+](C)c1.COCCOCCOS(=O)(=O)[O-]: the activity coefficient by setting is: (298.15 K) 41.8 ± 1.9; (303.15 K) 38.2 ± 1.8; (308.15 K) 36.4 ± 1.7.

Regarding `C1CCCCC1` [cyclohexane] + CCCCn1cc[n+](C)c1.COCCOCCOS(=O)(=O)[O-], the activity coefficient (298.15 K) was 34.4 ± 1.6, the activity coefficient (303.15 K) was 31.5 ± 1.5 and the activity coefficient (308.15 K) worked out at 30.3 ± 1.4.

In the case of `C1CCCC1` [cyclopentane] + CCCCn1cc[n+](C)c1.COCCOCCOS(=O)(=O)[O-], the activity coefficient runs as follows: (298.15 K) 22.7 ± 1.1; (303.15 K) 20.9 ± 1; (308.15 K) 20.5 ± 0.9.

Turning to `CCCCCCC` [heptane] + CCCCn1cc[n+](C)c1.COCCOCCOS(=O)(=O)[O-], the activity coefficient is, setting by setting: (298.15 K) 111 ± 5.2; (303.15 K) 100 ± 4.7; (308.15 K) 94.5 ± 4.4.

Take `C=CCCCC` [hex-1-ene] + CCCCn1cc[n+](C)c1.COCCOCCOS(=O)(=O)[O-]: the activity coefficient worked out at 35.1 ± 1.6 (298.15 K), 32.9 ± 1.5 (303.15 K) and 31.4 ± 1.5 (308.15 K).

In the case of `CCCCCC` [hexane] + CCCCn1cc[n+](C)c1.COCCOCCOS(=O)(=O)[O-], the activity coefficient by setting is: (298.15 K) 80.9 ± 3.8; (303.15 K) 74.1 ± 3.5; (308.15 K) 71.1 ± 3.3.

Regarding `CO` [methanol] + CCCCn1cc[n+](C)c1.COCCOCCOS(=O)(=O)[O-], the activity coefficient (298.15 K) came out at 0.345 ± 0.035, the activity coefficient (303.15 K) amounted to 0.342 ± 0.035 and the activity coefficient (308.15 K) was determined as 0.337 ± 0.035.

For the compound `C=CCCCCCC` [oct-1-ene] + CCCCn1cc[n+](C)c1.COCCOCCOS(=O)(=O)[O-], the activity coefficient reads like this: (298.15 K) 74.9 ± 3.5; (303.15 K) 69.9 ± 3.3; (308.15 K) 67.1 ± 3.1.

`CCCCCCCC` [octane] + CCCCn1cc[n+](C)c1.COCCOCCOS(=O)(=O)[O-]: the activity coefficient reads like this: (298.15 K) 156 ± 7.3; (303.15 K) 140 ± 6.6; (308.15 K) 130 ± 6.1.

Turning to `CCCCC` [pentane] + CCCCn1cc[n+](C)c1.COCCOCCOS(=O)(=O)[O-], the activity coefficient (298.15 K) is 61.7 ± 2.9, the activity coefficient (303.15 K) turned out to be 57.1 ± 2.7 and the activity coefficient (308.15 K) was found to be 54.9 ± 2.6.

Regarding `ClC(Cl)(Cl)Cl` [tetrachloromethane] + CCCCn1cc[n+](C)c1.COCCOCCOS(=O)(=O)[O-], the activity coefficient by setting is: (298.15 K) 2.81 ± 0.13; (303.15 K) 2.85 ± 0.13; (308.15 K) 2.91 ± 0.13.

Regarding `Cc1ccccc1` [toluene] + CCCCn1cc[n+](C)c1.COCCOCCOS(=O)(=O)[O-], the activity coefficient reads like this: (298.15 K) 3.72 ± 0.17; (303.15 K) 3.69 ± 0.17; (308.15 K) 3.66 ± 0.17.
